Data published in PubChem BioAssay AID330 (DTP/NCI, 2004).
Where “and” joins values, the source holds several entries; their conditions need not be identical. Equal values may be shown once. Inconclusive results and toxic doses are left out.

Test system: P388 leukemia ip, CD2F1 mice, survival T/C
Assay: NCI In Vivo Anticancer Drug Screen. Data for tumor model P388 Leukemia (intraperitoneal) in CD2F1 (CDF1) mice
Details: endpoint: median survival time, higher = longer survival
Outline: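 Mice carrying the transplanted tumor received test compound or vehicle. Survival was recorded in each group, and the value is the treated-group measurement divided by that of the vehicle-treated control group.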

[1] = dose: 50.0 mg/kg/injection, schedule: Q01DX005 (ip), vehicle: saline
[2] = dose: 100.0 mg/kg/injection, schedule: Q01DX005 (ip), vehicle: saline
[3] = dose: 60.0 mg/kg/injection, schedule: Q01DX005 (ip), vehicle: saline with Tween-80
[4] = dose: 120.0 mg/kg/injection, schedule: Q01DX005 (ip), vehicle: saline with Tween-80
[5] = dose: 240.0 mg/kg/injection, schedule: Q01DX005 (ip), vehicle: saline with Tween-80
[6] = dose: 50.0 mg/kg/injection, schedule: Q01DX009 (ip), vehicle: saline with Tween-80
[7] = dose: 100.0 mg/kg/injection, schedule: Q01DX009 (ip), vehicle: saline with Tween-80
[8] = dose: 50.0 mg/kg/injection, schedule: Q01DX005 (ip), vehicle: Klucel (hydroxypropylcellulose) (HPC)
[9] = dose: 50.0 mg/kg/injection, schedule: Q01DX009 (ip), vehicle: Klucel (hydroxypropylcellulose) (HPC)
[10] = dose: 100.0 mg/kg/injection, schedule: Q01DX009 (ip), vehicle: Klucel (hydroxypropylcellulose) (HPC)
[11] = dose: 200.0 mg/kg/injection, schedule: Q01DX009 (ip), vehicle: Klucel (hydroxypropylcellulose) (HPC)
[12] = dose: 50.0 mg/kg/injection, schedule: Q01DX009 (ip), vehicle: saline
[13] = dose: 60.0 mg/kg/injection, schedule: Q01DX005 (ip), vehicle: Klucel (hydroxypropylcellulose) (HPC)
[14] = dose: 120.0 mg/kg/injection, schedule: Q01DX005 (ip), vehicle: Klucel (hydroxypropylcellulose) (HPC)
[15] = dose: 240.0 mg/kg/injection, schedule: Q01DX005 (ip), vehicle: Klucel (hydroxypropylcellulose) (HPC)
[16] = dose: 50.0 mg/kg/injection, schedule: Q01DX005 (ip), vehicle: saline with Tween-80
[17] = dose: 100.0 mg/kg/injection, schedule: Q01DX005 (ip), vehicle: saline with Tween-80
[18] = dose: 60.0 mg/kg/injection, schedule: Q01DX005 (ip), vehicle: saline
[19] = dose: 120.0 mg/kg/injection, schedule: Q01DX005 (ip), vehicle: saline
[20] = dose: 240.0 mg/kg/injection, schedule: Q01DX005 (ip), vehicle: saline

SMILES: CCCCCC(=O)NCC(=O)OC
- T/C [1]: 100 % of control
- T/C [2]: 101 % of control
- T/C (dose: 200.0 mg/kg/injection, schedule: Q01DX005 (ip), vehicle: saline): 100 % of control

SMILES: CCCCOC(=O)NC(=O)c1cc2cc(Br)cc(Br)c2oc1=O
- T/C [3]: 94 % of control
- T/C [4]: 101 % of control
- T/C [5]: 92 % of control

SMILES: CN(C)C(=S)SC1OC(CO)C(OC2OC(CO)C(O)C(O)C2O)C(O)C1O (configuration not stated)
- T/C [6]: 93 % of control
- T/C [7]: 90 % of control
- T/C (dose: 200.0 mg/kg/injection, schedule: Q01DX009 (ip), vehicle: saline with Tween-80): 88 % of control

SMILES: CNCCC1CCCCC1
- T/C [8]: 110 % of control

SMILES: O=c1c2ccccc2sc2c(N(CCO)CCO)cc3c(c12)CCCC3
- T/C (dose: 25.0 mg/kg/injection, schedule: Q01DX005 (ip), vehicle: distilled water + Tween-80): 103 % of control
- T/C (dose: 50.0 mg/kg/injection, schedule: Q01DX005 (ip), vehicle: distilled water + Tween-80): 101 % of control
- T/C (dose: 100.0 mg/kg/injection, schedule: Q01DX005 (ip), vehicle: distilled water + Tween-80): 100 % of control
- T/C (dose: 200.0 mg/kg/injection, schedule: Q01DX005 (ip), vehicle: distilled water + Tween-80): 95 % of control

SMILES: Nc1ncc(S(=O)(=O)c2ccc([N+](=O)[O-])cc2)c(N)n1
- T/C (dose: 75.0 mg/kg/injection, schedule: Q01DX009 (ip), vehicle: suspension in saline): 96 % of control
- T/C (dose: 150.0 mg/kg/injection, schedule: Q01DX009 (ip), vehicle: suspension in saline): 98 % of control
- T/C (dose: 300.0 mg/kg/injection, schedule: Q01DX009 (ip), vehicle: suspension in saline): 92 % of control

SMILES: CCOC(=O)NN(C(=O)OCC)C(C(=O)C1CCCCC1)N(NC(=O)OCC)C(=O)OCC
- T/C [9]: 102 % of control
- T/C [10]: 100 % of control
- T/C [11]: 96 % of control

SMILES: [Cl][Co][Cl].[NH-]CC[N-]CC[N-]CC[NH-]
- T/C (dose: 12.5 mg/kg/injection, schedule: Q01DX005 (ip), vehicle: saline): 100 % of control
- T/C (dose: 25.0 mg/kg/injection, schedule: Q01DX005 (ip), vehicle: saline): 104 % of control
- T/C [1]: 114 % of control and 107 % of control and 113 % of control
- T/C [12]: 102 % of control
- T/C [2]: 109 % of control
- T/C (dose: 100.0 mg/kg/injection, schedule: Q01DX009 (ip), vehicle: saline): 100 % of control

SMILES: O=C1C(c2nc3ccccc3[nH]2)=C(O)c2ccccc21
- T/C [13]: 87 % of control
- T/C [14]: 87 % of control
- T/C [15]: 87 % of control

SMILES: O=C(N/N=C/c1ccc(O)c(O)c1)c1ccccc1
- T/C [16]: 109 % of control
- T/C [17]: 118 % of control
- T/C (dose: 200.0 mg/kg/injection, schedule: Q01DX005 (ip), vehicle: saline with Tween-80): 119 % of control

SMILES: COC(=O)C(O)(/C(=N\O)c1ccccc1)c1ccccc1 (configuration not stated)
- T/C [3]: 97 % of control
- T/C [4]: 90 % of control

SMILES: NC(CCl)=NCCOC12CC3CC(CC(C3)C1)C2
- T/C (dose: 15.0 mg/kg/injection, schedule: Q01DX005 (ip), vehicle: saline): 103 % of control
- T/C (dose: 30.0 mg/kg/injection, schedule: Q01DX005 (ip), vehicle: saline): 103 % of control
- T/C [18]: 106 % of control and 98 % of control

SMILES: C[CH2][Ge]([CH2]C)[CH2]/C(C)=C(/C)[CH2][Ge]([CH2]C)[CH2]C
- T/C [6]: 100 % of control
- T/C [7]: 108 % of control

SMILES: COc1cccc2c1C(=O)c1c(O)c3c(c(O)c1C2=O)CC(O)(C(=O)COC(C)C)CC3OC1CC(N)C(O)C(C)O1 (configuration not stated)
- T/C (dose: 3.13 mg/kg/injection, schedule: Q04DX003 (ip), vehicle: water): 97 % of control
- T/C (dose: 6.25 mg/kg/injection, schedule: Q04DX003 (ip), vehicle: water): 100 % of control
- T/C (dose: 12.5 mg/kg/injection, schedule: Q04DX003 (ip), vehicle: water): 100 % of control
- T/C (dose: 25.0 mg/kg/injection, schedule: Q04DX003 (ip), vehicle: water): 119 % of control
- T/C (dose: 50.0 mg/kg/injection, schedule: Q04DX003 (ip), vehicle: water): 109 % of control

SMILES: O=C1NC(=O)C(=C2C(=O)COC2=O)C(=O)N1
- T/C [18]: 103 % of control
- T/C [19]: 106 % of control
- T/C [20]: 104 % of control

SMILES: O=C1C=C(N2CC2)C(=O)C=C1N1CC1
- T/C (dose: 0.12 mg/kg/injection, schedule: Q01DX009 (ip), vehicle: saline): 157 % of control
- T/C (dose: 0.25 mg/kg/injection, schedule: Q01DX009 (ip), vehicle: saline): 150 % of control and 170 % of control and 196 % of control
- T/C (dose: 0.5 mg/kg/injection, schedule: Q01DX009 (ip), vehicle: saline): 153 % of control and 185 % of control and 206 % of control
- T/C (dose: 1.0 mg/kg/injection, schedule: Q01DX009 (ip), vehicle: saline): 95 % of control

SMILES: CC1(C)[C@@H]2CC[C@]3(C)[C@H]4CC[C@]5(C)[C@@H](O)CC[C@H]5[C@@H]4CC[C@]3(O2)[C@@H]1O
- T/C [16]: 91 % of control
- T/C [17]: 91 % of control

SMILES: COc1ccc(C(=O)C(c2ccc(OC)c(OC)c2O)C(OC)OC)c(O)c1 (configuration not stated)
- T/C (dose: 75.0 mg/kg/injection, schedule: Q04DX003 (ip), vehicle: Klucel (hydroxypropylcellulose) (HPC)): 100 % of control
- T/C (dose: 150.0 mg/kg/injection, schedule: Q04DX003 (ip), vehicle: Klucel (hydroxypropylcellulose) (HPC)): 98 % of control
- T/C (dose: 300.0 mg/kg/injection, schedule: Q04DX003 (ip), vehicle: Klucel (hydroxypropylcellulose) (HPC)): 98 % of control

SMILES: Cc1nn(C(N)=S)c(C)c1N=Nc1ccc([N+](=O)[O-])cc1
- T/C (dose: 100.0 mg/kg/injection, schedule: Q01DX001 (ip), vehicle: Klucel (hydroxypropylcellulose) (HPC)): 104 % of control
- T/C (dose: 200.0 mg/kg/injection, schedule: Q01DX001 (ip), vehicle: Klucel (hydroxypropylcellulose) (HPC)): 108 % of control
- T/C (dose: 400.0 mg/kg/injection, schedule: Q01DX001 (ip), vehicle: Klucel (hydroxypropylcellulose) (HPC)): 113 % of control

SMILES: O=C1Nc2ccccc2/C1=N/N=C/c1ccco1
- T/C [9]: 96 % of control
- T/C [10]: 87 % of control
- T/C [11]: 88 % of control

SMILES: C=C1CC[C@H]2C(C)=CC[C@@H]3[C@H](OC(=O)[C@H]3CN(C)C)[C@@H]12
- T/C (dose: 100.0 mg/kg/injection, schedule: Q01DX001 (ip), vehicle: saline): 98 % of control
- T/C (dose: 200.0 mg/kg/injection, schedule: Q01DX001 (ip), vehicle: saline): 104 % of control
- T/C (dose: 400.0 mg/kg/injection, schedule: Q01DX001 (ip), vehicle: saline): 105 % of control

SMILES: O=C1C2=C(Nc3ccccc3N2)OC1c1ccc(C2OC3=C(Nc4ccccc4N3)C2=O)cc1 (configuration not stated)
- T/C [13]: 88 % of control
- T/C [14]: 88 % of control
- T/C [15]: 87 % of control

SMILES: CC(c1ccccc1)C1NC(=O)NC1=O (configuration not stated)
- T/C (dose: 25.0 mg/kg/injection, schedule: Q01DX009 (ip), vehicle: saline with Tween-80): 117 % of control
- T/C [6]: 106 % of control
- T/C [7]: 106 % of control

SMILES: Cc1ccc(OCC(O)CN2CCN(c3ccc(Cl)cc3)CC2)cc1 (configuration not stated)
- T/C (dose: 100.0 mg/kg/injection, schedule: Q01DX009 (ip), vehicle: saline sonified): 100 % of control
- T/C (dose: 200.0 mg/kg/injection, schedule: Q01DX009 (ip), vehicle: saline sonified): 95 % of control
- T/C (dose: 400.0 mg/kg/injection, schedule: Q01DX009 (ip), vehicle: saline sonified): 90 % of control

SMILES: C[Si](C)(C)CC[Si]12OCCN(C3CCCCC3O1)C1CCCCC1O2 (configuration not stated)
- T/C [8]: 94 % of control
- T/C (dose: 100.0 mg/kg/injection, schedule: Q01DX005 (ip), vehicle: Klucel (hydroxypropylcellulose) (HPC)): 104 % of control
- T/C (dose: 200.0 mg/kg/injection, schedule: Q01DX005 (ip), vehicle: Klucel (hydroxypropylcellulose) (HPC)): 105 % of control

SMILES: O=C1C2C3CCC(O3)C2C(=O)N1CCO (configuration not stated)
- T/C [18]: 96 % of control
- T/C [19]: 89 % of control
- T/C [20]: 98 % of control

SMILES: CC1(C)COP(=O)(c2ccccc2)N1 (configuration not stated)
- T/C [3]: 103 % of control
- T/C [4]: 107 % of control
- T/C [5]: 101 % of control

SMILES: Cc1cc(O)c2c(c1)C(=O)c1cccc(O)c1C2=O
- T/C (dose: 6.25 mg/kg/injection, schedule: Q01DX009 (ip), vehicle: saline): 100 % of control
- T/C (dose: 12.5 mg/kg/injection, schedule: Q01DX009 (ip), vehicle: saline): 111 % of control
- T/C (dose: 25.0 mg/kg/injection, schedule: Q01DX009 (ip), vehicle: saline): 117 % of control
- T/C [12]: 108 % of control
